Values of other authors as cited in article PMC10485003, “Antibiotic hyper-resistance in a class I aminoacyl-tRNA synthetase with altered active site signature motif” (Nature Communications, 2023).

Target: ScIleRS2
Details: aminoacylation, with tRNA; cited from earlier work

Q: Which Ki does the source give for `C/C(=C\C(=O)OCCCCCCCCC(=O)O)C[C@@H]1OC[C@H](C[C@@H]2O[C@H]2[C@@H](C)[C@H](C)O)[C@@H](O)[C@H]1O` [mupirocin] here?
A: 15 µM
